Measured values from patent EP3748362A1, “IN VITRO METHOD FOR DETECTING RENAL DISEASE” (Fundacion Instituto De Investigacion Sanitaria Fundacion …, priority 2019, dated 2020).
Entries after “also recorded” stand apart in the source; their conditions may differ.

Key:
[1] = tested on: renal inflammation induced by folic acid; experiment: Renal inflammatory cell infiltration, folic acid-induced renal injury in mice; assay type: in vivo; conditions: folic acid 300 mg/kg model; paricalcitol 25 µg/kg/day i.p.; anti-F4/80 and anti-CD3 immunohistochemistry
Procedure: (§1) All animal procedures were performed according to the guidelines of animal research in the European Community and with prior approval by the Ethics Committee of the Health Research of the IIS-Fundacion Jiménez Díaz. For in vivo studies, mice received a daily intraperitoneal injection of the VDRA Paricalcitol starting 48 hours prior to induction of kidney damage.
(§2) At the time of sacrifice, animals were anesthetized with 5 mg/kg xylazine (Rompun, Bayer AG) and 35 mg/kg ketamine (Ketolar, Pfizer) and the kidneys perfused in situ with cold saline before removal. Then, kidney portions were fixed in formalin buffer for immunohistochemistry studies or immediately frozen in liquid nitrogen for gene and protein studies.
Folic acid nephropathy is a classical model of kidney tubulointerstitial injury and inflammation that has been reported in humans. Mice received a single intraperitoneal injection of folic acid (Sigma) 300 mg/kg in 0.3 mol/l sodium bicarbonate or vehicle, and were sacrificed 48 hours later. […]
(§3) Paraffin-embedded kidney sections (3 µm) were stained using conventional methods. […] For each sample (processed by duplicate in a blinded manner), the average value was obtained from the analysis of 4 fields (20X objective) as density/mm2 or percentage stained area vs total analyzed area. Data are expressed as fold increase over control mice, as mean ± SEM of 8-10 animals per group. […]

[2] = tested on: NF-κB1; experiment: Canonical NF-κB1 activation (western blot) in TWEAK-stimulated HK2 cells; assay type: cell-based, Human; conditions: 12 µM paricalcitol for 48 hours, TWEAK 100 ng/ml 15 min, p65 and IκBα phosphorylation
Procedure: (§4) Human kidney proximal tubule epithelial cells (HK2 cell line, ATCC CRL-2190) were grown in RPMI 1640 with 10% fetal bovine serum (FBS), 1% glutamine, 100 U/ml penicillin, 100 µg/ml streptomycin, 5 µg/ml insulin-transferrin-selenite and 36 ng/ml hydrocortisone in 5% CO2 at 37° C. When cells reached 60 to 70% confluence, they were serum-depleted for 24 hours before the experiment.
(§5) Cells were stimulated with 100ng/ml recombinant human soluble TWEAK (Millipore) or p-200 µg/ml cresyl-sulfate (Raymond Vanholder and Griet Glorieux, University of Gent, Belgium). Concentrations of TWEAK and p-cresyl-sulfate were based on previously published dose-response experiments (Poveda et al. 2014; Sanz et al. 2008). In some experiments cells were preincubated for 48 hours with the paricalcitol 12 µmol/L (Abbott) prior to stimulation. DMSO, used as a solvent in some cases, had no effect on cell viability or on gene expression levels.
(§6) For western blot, cell (25 µg/lane) and kidney (100-150 µg/lane) protein extracts were separated on 6%-12% polyacrylamide-SDS gels under reducing conditions. […] Autoradiographs were scanned using the Gel Doc™ EZ imager and analyzed with the Image Lab 3.0 software (BioRad).

[3] = tested on: NF-κB2; experiment: Non-canonical NF-κB2 activation (western blot) in TWEAK-stimulated HK2 cells; assay type: cell-based, Human; conditions: 12 µM paricalcitol for 48 hours, TWEAK 100 ng/ml 6 hours
Procedure: as §4, §5, §6

[4] = tested on: NF-κB2; experiment: Non-canonical NF-κB2 activation and dependent cytokines, folic acid-induced renal injury in mice; assay type: in vivo; conditions: folic acid 300 mg/kg model; paricalcitol 25 µg/kg/day i.p.
Procedure: as §1
as §2, with “studies. […]” for “studies.”
as §3
For western blot, cell (25 µg/lane) and kidney (100-150 µg/lane) protein extracts were separated on 6%-12% polyacrylamide-SDS gels under reducing conditions. […] Autoradiographs were scanned using the Gel Doc™ EZ imager and analyzed with the Image Lab 3.0 software (BioRad). […]

[5] = tested on: TRAF3; experiment: Renal TRAF3 (western blot), TWEAK-mediated renal inflammation in mice; assay type: in vivo; conditions: TWEAK 0.5 µg model; paricalcitol 750 ng/kg/day i.p.; sacrificed 24 hours after TWEAK
Procedure: as §1, §2
TWEAK administration: C57BL/6 female mice (9-12 weeks, weight 20 g, 7-8 animals per group), received a single intraperitoneal injection of 0.5 µg TWEAK dissolved in saline and were sacrificed 24 hours later, as previously described (Sanz et al. 2008). Controls were injected with the saline vehicle (n=8-10 mice per group). TWEAK endotoxin level were <0.1 ng/mg, confirmed by MALDI-TOF. […]
as §6

In the case of C[C@H](/C=C/[C@H](C)C(C)(C)O)[C@H]1CC[C@H]2/C(=C/C=C3C[C@@H](O)C[C@H](O)C3)CCC[C@]12C [paricalcitol], the “renal inflammatory cell infiltration” value [1] is reported as “prevented”, the “TWEAK-induced NF-κB1 activation” value [2] is reported as “did not modulate” and the “TWEAK-induced IKK-α phosphorylation, the increase in NIK, and p52 and RelB nuclear levels” value [3] is reported as “inhibited”. The “NF-κB2 activation, as determined by RelB and p52 levels, nuclear translocation and RelB DNA-binding activity” value [4] was “decreased; also recorded: blocked”, the “gene and protein expression of NF-κB2-dependent cytokines, such as CCL21A, as well as other pro-inflammatory factors” value [4] was “blocked” and the “renal TRAF3 protein levels” value [5] was “restored renal TRAF3 protein levels to values of control mice”.
